Experimental data reported in ChEMBL document CHEMBL1133846, “The discovery of anthranilic acid-based MMP inhibitors. Part 3: incorporation of basic amines” (Bioorg Med Chem Lett, 2001).
Several values for one entry are separate records, joined by “and”; a condition that tells them apart may be missing. Identical values can stand only once.

Key:
[1] = target: Matrix metalloproteinase-9 (Homo sapiens, UniProt P14780); test: In vitro inhibition of Matrix metalloprotease-9.
Interstitial collagenase [2] = target: T1, Interstitial collagenase (Homo sapiens, UniProt P03956); test: In vitro inhibition of Matrix metalloprotease-1.
T1 sequence (P03956 whole entry): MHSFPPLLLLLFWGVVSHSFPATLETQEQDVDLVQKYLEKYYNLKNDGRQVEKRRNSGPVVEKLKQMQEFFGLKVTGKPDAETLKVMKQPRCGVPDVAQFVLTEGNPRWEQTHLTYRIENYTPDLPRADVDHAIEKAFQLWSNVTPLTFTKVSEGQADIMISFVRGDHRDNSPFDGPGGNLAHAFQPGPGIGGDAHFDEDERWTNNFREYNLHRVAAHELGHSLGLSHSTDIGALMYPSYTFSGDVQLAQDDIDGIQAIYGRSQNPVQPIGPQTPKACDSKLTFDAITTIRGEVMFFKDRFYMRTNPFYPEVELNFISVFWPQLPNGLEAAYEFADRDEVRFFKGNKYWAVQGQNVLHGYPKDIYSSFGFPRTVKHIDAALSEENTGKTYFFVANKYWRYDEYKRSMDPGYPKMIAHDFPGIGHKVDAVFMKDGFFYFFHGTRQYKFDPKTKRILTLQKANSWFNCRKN

Collagenase 3 [3] = target: T2, Collagenase 3 (Homo sapiens, UniProt P45452); test: In vitro inhibition of Matrix metalloprotease-13.
[4] = target: T3, Disintegrin and metalloproteinase domain-containing protein 17 (Homo sapiens, UniProt P78536); test: In vitro inhibition of TNF-alpha converting enzyme.
T3 sequence (P78536 whole entry, the tested form may be a part): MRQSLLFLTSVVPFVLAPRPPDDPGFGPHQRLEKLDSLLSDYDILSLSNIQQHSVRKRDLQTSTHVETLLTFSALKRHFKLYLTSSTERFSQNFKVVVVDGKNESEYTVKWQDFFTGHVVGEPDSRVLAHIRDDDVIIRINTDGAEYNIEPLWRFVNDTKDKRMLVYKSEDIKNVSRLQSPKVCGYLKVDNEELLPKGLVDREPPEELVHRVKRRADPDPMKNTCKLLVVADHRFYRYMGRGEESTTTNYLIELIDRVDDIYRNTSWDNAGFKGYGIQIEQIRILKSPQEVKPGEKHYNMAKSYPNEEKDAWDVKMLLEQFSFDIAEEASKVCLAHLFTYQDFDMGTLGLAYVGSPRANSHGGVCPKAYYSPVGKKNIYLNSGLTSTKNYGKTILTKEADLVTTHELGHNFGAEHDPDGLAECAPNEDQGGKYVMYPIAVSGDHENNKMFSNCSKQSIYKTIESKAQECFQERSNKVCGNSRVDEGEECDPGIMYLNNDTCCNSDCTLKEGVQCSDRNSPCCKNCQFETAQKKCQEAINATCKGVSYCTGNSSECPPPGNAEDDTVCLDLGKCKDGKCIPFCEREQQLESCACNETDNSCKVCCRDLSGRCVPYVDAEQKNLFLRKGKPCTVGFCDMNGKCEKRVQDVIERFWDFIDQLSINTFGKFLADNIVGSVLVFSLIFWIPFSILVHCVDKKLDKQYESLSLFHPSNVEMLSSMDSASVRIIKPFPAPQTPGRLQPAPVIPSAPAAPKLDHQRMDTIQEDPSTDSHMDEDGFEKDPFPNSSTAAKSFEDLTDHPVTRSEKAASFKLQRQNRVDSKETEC

Interstitial collagenase [5] = target: T1, Interstitial collagenase; test: Inhibition of Matrix metalloprotease-1
[6] = target: T3, Disintegrin and metalloproteinase domain-containing protein 17; test: Inhibition of TNFalpha converting enzyme, TACE
Collagenase 3 [7] = target: T2, Collagenase 3
Description: Inhibition of Matrix metalloprotease-13

Sequence of Matrix metalloproteinase-9 (P14780 whole entry): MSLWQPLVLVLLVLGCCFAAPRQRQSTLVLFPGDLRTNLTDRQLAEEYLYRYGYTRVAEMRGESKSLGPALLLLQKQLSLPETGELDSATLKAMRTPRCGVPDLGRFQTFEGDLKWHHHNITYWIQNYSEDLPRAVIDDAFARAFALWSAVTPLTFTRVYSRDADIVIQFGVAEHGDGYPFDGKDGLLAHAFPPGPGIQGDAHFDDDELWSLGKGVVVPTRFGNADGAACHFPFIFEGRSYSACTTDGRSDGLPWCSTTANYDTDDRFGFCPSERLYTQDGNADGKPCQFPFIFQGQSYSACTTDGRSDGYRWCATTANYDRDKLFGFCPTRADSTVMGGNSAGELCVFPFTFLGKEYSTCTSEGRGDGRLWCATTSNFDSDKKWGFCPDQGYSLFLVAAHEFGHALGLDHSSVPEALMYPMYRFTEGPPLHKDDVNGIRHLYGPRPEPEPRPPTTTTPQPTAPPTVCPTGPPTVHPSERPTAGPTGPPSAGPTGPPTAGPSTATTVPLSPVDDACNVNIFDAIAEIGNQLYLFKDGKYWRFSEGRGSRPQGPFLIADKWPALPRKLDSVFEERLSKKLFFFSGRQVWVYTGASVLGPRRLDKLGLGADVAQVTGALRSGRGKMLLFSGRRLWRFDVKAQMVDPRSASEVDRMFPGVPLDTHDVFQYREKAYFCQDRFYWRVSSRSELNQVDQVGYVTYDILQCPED

SMILES | IC50 [1] [nM] | IC50 (Interstitial collagenase [2]) | IC50 (Interstitial collagenase [5]) [nM] | IC50 [6] [nM] | IC50 (Collagenase 3 [7]) [nM] | IC50 (Collagenase 3 [3]) [nM] | IC50 [4]
COC(=O)C1CCCN1Cc1cccc(C(=O)NO)c1N(C)S(=O)(=O)c1ccc(OC)cc1 (stereo not drawn) | 5 | 517 nM | – | – | – | 6 | 200 nM
COc1ccc(S(=O)(=O)N(C)c2c(CN3CCN(C)CC3)cc(-c3ccc4ccccc4c3)cc2C(=O)NO)cc1 | 2 | 343 nM | – | – | – | 3 | 49 nM
COc1ccc(S(=O)(=O)N(Cc2ccc(CN(C)C)cc2)c2c(C)cccc2C(=O)NO)cc1 | 3 | – | – | – | – | – | –
CN1CCN(Cc2cc(Br)cc(C(=O)NO)c2N(C)S(=O)(=O)c2ccc(Oc3ccc(Cl)cc3)cc2)CC1 | 0.5 | – | 82 | 80 | 0.7 | – | –
COc1ccc(S(=O)(=O)N(C)c2c(CN3CCN(C)CC3)cc(Br)cc2C(=O)NO)cc1 | 2 | 194 nM | – | – | – | – | –
COc1ccc(S(=O)(=O)N(C)c2c(CN3CCN(C)CC3)cc(-c3ccc(OC(F)(F)F)cc3)cc2C(=O)NO)cc1 | 2 | 745 nM | – | – | – | 4 | 210 nM
COc1ccc(S(=O)(=O)N(Cc2ccc(N3CCN(C)CC3)cc2)c2c(C)cccc2C(=O)NO)cc1 | 7 | – | – | – | – | – | –
CN1CCN(Cc2cccc(C(=O)NO)c2N(C)S(=O)(=O)c2ccc(Oc3ccc(Cl)cc3)cc2)CC1 | 1 | 155 nM | – | – | – | 0.8 | 122 nM
COc1ccc(S(=O)(=O)N(CC#CCN2CCN(C)CC2)c2c(C)cc(Br)cc2C(=O)NO)cc1 | 10 | – | – | – | – | 6 | 26 nM
COc1ccc(S(=O)(=O)N(C)c2c(CN3CCN(c4ccccc4)CC3)cc(Br)cc2C(=O)NO)cc1 | 3 | 444 nM | – | – | – | 3 | 87 nM
COc1ccc(S(=O)(=O)N(Cc2ccc(OCCN3CCCCC3)cc2)c2c(C)cc(Br)cc2C(=O)NO)cc1 | 2 | – | – | – | – | 3 | –

The next lines start with results.

IC50 [1] [nM] | IC50 (Interstitial collagenase [2]) | IC50 (Interstitial collagenase [5]) [nM] | IC50 [6] [nM] | IC50 (Collagenase 3 [7]) [nM] | SMILES | IC50 (Collagenase 3 [3]) [nM] | IC50 [4]
7 | – | – | – | – | COc1ccc(S(=O)(=O)N(Cc2ccc(OCCN3CCCCC3)cc2)c2c(C)cccc2C(=O)NO)cc1 | – | –
14 | 150 nM | – | – | – | CCN(CC)CC#CCN(c1c(C)cc(Br)cc1C(=O)NO)S(=O)(=O)c1ccc(OC)cc1 | 7 | 36 nM
1 | – | – | – | – | COc1ccc(S(=O)(=O)N(C)c2c(CN3CCN(C)CC3)cccc2C(=O)NO)cc1 | – | –
7 | 674 nM | – | – | – | COc1ccc(S(=O)(=O)N(C)c2c(CN3CCN(C(=O)OC(C)(C)C)CC3)cc(Br)cc2C(=O)NO)cc1 | 6 | 63 nM
8 | 744 nM | – | – | – | CCN(CC)Cc1cccc(C(=O)NO)c1N(C)S(=O)(=O)c1ccc(OC)cc1 | 84 | –
– | 329 nM and 391 nM | – | – | – | COc1ccc(S(=O)(=O)N(Cc2cccnc2)c2c(C)cccc2C(=O)NO)cc1 | – | 356 nM and 645 nM
